According to patent US10494376B2, “Tetrahydroisoquinoline derived PRMT5-inhibitors” (CTXT PTY LTD, priority 2014, dated 2019):
Structures can show the parent of a compound that is named as a salt. Where two headings read alike, the source gives them in different places.

How the values were obtained:
[1] = system: symmetrical dimethylation of arginine (Di-Methyl Histone H4 Arginine 3) in cell line TE11; experiment: Revised PRMT5 Biomarker Assay (Di-Methyl Histone H4 Arginine 3 immunofluorescence); assay type: cell-based; details: Homo sapiens, TE-11, TE11 cells, 72 hours
Protocol: Compounds of the invention may be tested for potency to inhibit symmetrical dimethylation of arginine in the following assay:
The cell line TE11 was seeded at a density of 6,000 cells per well in 96 well optical quality tissue culture plates in DME medium and 10% foetal bovine serum, and allowed to adhere for 5 hours under standard culture conditions (37 degree Celsius, 5% CO2). […] After incubation for 72 hours, the cells were fixed with 3.7% formaldehyde in PBS for 30 minutes at room temperature, washed with phosphate buffer saline and blocked with Odyssey blocking buffer (LI-COR, Lincoln, Nebr.). Rabbit anti-Di-Methyl Histone H4 Arginine 3 specific antibody (Epigentek) in Odyssey blocking buffer was added and incubated for 14 hours at 4 degree Celsius. […] Alternatively, the plates were imaged on a PerkinElmer Phenix high content imaging platform. […] The resulting mean intensity per cell was directly converted to percent inhibition as outlined above (IC50, imager based).

[2] = molecular target: Full-length PRMT5 enzyme (NCBI Reference sequence NP_006100.2) co-expressed with His6-MEP50 (Homo sapiens (Human), UniProt O14744); experiment: Revised PRMT5 Biochemical Assay; details: 1 μM peptide substrate, 1 μM S-Adenosyl methionine, 4 hours at 37 degree Celsius, Transcreener EPIGEN fluorescence polarisation
Summary of the method: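 Full-length PRMT5 co-expressed with His6-MEP50 in insect cells (15 ng/reaction) was run with 1 μM H4-derived peptide and 1 μM SAM in PBS, 0.01% Tween-20, 0.01% albumin and 1 mM DTT for 4 h at 37 °C. Product was read by Transcreener EPIGEN fluorescence polarisation, and IC50 came from a 4-parameter fit.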

[3] = PerkinElmer Envision fluorescence intensity, corrected for Hoechst 33342, read-out: IC50 - plate-reader based
[4] = PerkinElmer Phenix high content imaging, mean intensity per cell, read-out: IC50 - image based

Full-length PRMT5 enzyme (NCBI Reference sequence NP_006100.2) co-expressed with His6-MEP50, sequence (O14744 whole entry): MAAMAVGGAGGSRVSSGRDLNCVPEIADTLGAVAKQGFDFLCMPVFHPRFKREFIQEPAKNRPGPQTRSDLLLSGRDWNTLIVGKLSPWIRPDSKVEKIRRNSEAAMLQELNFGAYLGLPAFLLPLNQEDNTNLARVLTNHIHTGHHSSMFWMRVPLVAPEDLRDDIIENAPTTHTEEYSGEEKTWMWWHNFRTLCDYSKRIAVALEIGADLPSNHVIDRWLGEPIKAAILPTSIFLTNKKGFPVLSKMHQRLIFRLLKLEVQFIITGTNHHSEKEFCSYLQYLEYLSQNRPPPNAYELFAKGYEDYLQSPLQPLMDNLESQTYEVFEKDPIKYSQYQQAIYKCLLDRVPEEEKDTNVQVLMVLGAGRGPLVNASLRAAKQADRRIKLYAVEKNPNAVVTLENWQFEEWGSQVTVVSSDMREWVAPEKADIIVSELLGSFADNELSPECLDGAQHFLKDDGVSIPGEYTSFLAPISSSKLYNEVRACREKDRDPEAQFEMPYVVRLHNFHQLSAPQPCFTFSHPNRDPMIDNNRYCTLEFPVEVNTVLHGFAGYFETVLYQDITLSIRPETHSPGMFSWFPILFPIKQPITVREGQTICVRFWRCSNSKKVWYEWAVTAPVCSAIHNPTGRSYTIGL
Full-length PRMT5 enzyme (NCBI Reference sequence NP_006100.2) co-expressed with His6-MEP50, sequence (Q9BQA1 whole entry partner): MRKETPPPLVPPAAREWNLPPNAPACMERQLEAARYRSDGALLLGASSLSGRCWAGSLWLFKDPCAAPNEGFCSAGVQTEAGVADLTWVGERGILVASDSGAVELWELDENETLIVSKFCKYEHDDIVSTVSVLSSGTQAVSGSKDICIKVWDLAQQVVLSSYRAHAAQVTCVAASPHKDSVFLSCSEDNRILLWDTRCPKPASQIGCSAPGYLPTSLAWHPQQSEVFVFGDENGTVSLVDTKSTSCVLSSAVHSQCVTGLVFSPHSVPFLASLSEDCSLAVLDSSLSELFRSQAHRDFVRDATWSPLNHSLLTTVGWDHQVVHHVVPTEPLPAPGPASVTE

SMILES | IC50 [1, 3] | IC50 [2] | IC50 [1, 4]
O=C(NC[C@@H](O)[C@@H]1Cc2ccccc2CN1)c1ccnc(OC2CCOCC2)c1 [Example 26, N-((R)-2-Hydroxy-2-((S)-1,2,3,4-tetrahydroisoquinolin-3-yl)ethyl)-2-((tetrahydro-2H-pyran-4-yl)oxy)isonicotinamide bis(2,2,2-trifluoroacetic acid) salt] | 15 nM | 53 nM | 3 nM
O=C(NC[C@@H](O)[C@@H]1Cc2ccccc2CN1)c1ccc(C(=O)N2C3CCC2COC3)cc1 [Example 49, 4-(3-Oxa-8-azabicyclo[3.2.1]octane-8-carbonyl)-N—((R)-2-hydroxy-2-((S)-1,2,3,4-tetrahydroisoquinolin-3-yl)ethyl)benzamide hydrochloride] | 6 nM | 38 nM | 1 nM
CCOc1cc(C(=O)N2C3CCC2COC3)ccc1C(=O)NC[C@@H](O)[C@@H]1Cc2ccccc2CN1 [Example 50, 4-(3-Oxa-8-azabicyclo[3.2.1]octane-8-carbonyl)-2-ethoxy-N—((R)-2-hydroxy-2-((S)-1,2,3,4-tetrahydroisoquinolin-3-yl)ethyl)benzamide hydrochloride] | 0.3 nM | 19 nM | 0.3 nM
CCOc1cc(C(=O)N2C3CCCC2COC3)ccc1C(=O)NC[C@@H](O)[C@@H]1Cc2ccccc2CN1 [Example 55, 4-(3-Oxa-9-azabicyclo[3.3.1]nonane-9-carbonyl)-2-ethoxy-N—((R)-2-hydroxy-2-((S)-1,2,3,4-tetrahydroisoquinolin-3-yl)ethyl)benzamide] | 0.4 nM | 16 nM | 0.2 nM
CCOc1cc(C(=O)N2C3CCC2COC3)c(F)cc1C(=O)NC[C@@H](O)[C@@H]1Cc2ccccc2CN1 [Example 69] | 3 nM | 1300 nM | –
CCOc1cc(CC(=O)N2C3CCC2COC3)ccc1C(=O)NC[C@@H](O)[C@@H]1Cc2ccccc2CN1 [Example 74] | 5 nM | 338 nM | –
CCOc1cc(CC(=O)N2CCCC2)ccc1C(=O)NC[C@@H](O)[C@@H]1Cc2ccccc2CN1 [Example 79, 2-Ethoxy-N-((R)-2-hydroxy-2-((S)-1,2,3,4-tetrahydroisoquinolin-3-yl)ethyl)-4-(2-oxo-2-(pyrrolidin-1-yl)ethyl)benzamide hydrochloride] | – | 168 nM | 3 nM
O=C(NC[C@@H](O)[C@@H]1Cc2ccccc2CN1)c1ccc(C(=O)N2C3CCC2COC3)cc1F [Example 81, 4-(3-Oxa-8-azabicyclo[3.2.1]octane-8-carbonyl)-2-fluoro-N-((R)-2-hydroxy-2-((S)-1,2,3,4-tetrahydroisoquinolin-3-yl)ethyl)benzamide hydrochloride] | 3 nM | 51 nM | –
CCOc1cc(C(=O)N2C3CCC2COC3)ncc1C(=O)NC[C@@H](O)[C@@H]1Cc2ccccc2CN1 [Example 82, 6-(3-Oxa-8-azabicyclo[3.2.1]octane-8-carbonyl)-4-ethoxy-N-((R)-2-hydroxy-2-((S)-1,2,3,4-tetrahydroisoquinolin-3-yl)ethyl)nicotinamide dihydrochloride] | – | 106 nM | 8 nM
O=C(NC[C@@H](O)[C@@H]1Cc2ccccc2CN1)c1ccc(C(=O)N2C3CCC2COC3)cc1Cl [Example 83, 4-(3-Oxa-8-azabicyclo[3.2.1]octane-8-carbonyl)-2-chloro-N-((R)-2-hydroxy-2-((S)-1,2,3,4-tetrahydroisoquinolin-3-yl)ethyl)benzamide] | 4 nM | 65 nM | –

More lines, main results first:

IC50 [1, 3] | IC50 [2] | SMILES | IC50 [1, 4]
1460 nM | 8360 nM | O=C(NC[C@@H](O)[C@@H]1Cc2ccccc2CN1)c1ccccc1 [Example 3, N-((R)-2-Hydroxy-2-((S)-1,2,3,4-tetrahydroisoquinolin-3-yl)ethyl)benzamide] | –
2320 nM | 16500 nM | CCOc1ccccc1C(=O)NC[C@@H](O)[C@@H]1Cc2ccccc2CN1 [Example 8, 2-Ethoxy-N-((R)-2-hydroxy-2-((S)-1,2,3,4-tetrahydroisoquinolin-3-yl)ethyl)benzamide] | –
23 nM | 383 nM | O=C(NC[C@@H](O)[C@@H]1Cc2ccccc2CN1)c1ccc(C(=O)N2CCOCC2)cc1F [Example 15, 2-Fluoro-N-((R)-2-hydroxy-2-((S)-1,2,3,4-tetrahydroisoquinolin-3-yl)ethyl)-4-(morpholine-4-carbonyl)benzamide] | –
87 nM | 70 nM | O=C(NC[C@@H](O)[C@@H]1Cc2ccccc2CN1)c1ccnc(OC2CCNCC2)c1 [Example 21, N-((R)-2-Hydroxy-2-((S)-1,2,3,4-tetrahydroisoquinolin-3-yl)ethyl)-2-(piperidin-4-yloxy)isonicotinamide] | –
7 nM | 44 nM | COC(=O)N1CCC(Oc2cc(C(=O)NC[C@@H](O)[C@@H]3Cc4ccccc4CN3)ccn2)CC1 [Example 27, Methyl 4-((4-(((R)-2-hydroxy-2-((S)-1,2,3,4-tetrahydroisoquinolin-3-yl)ethyl)carbamoyl)pyridin-2-yl)oxy)piperidine-1-carboxylate bis(2,2,2-trifluoroacetic acid) salt] | –
12 nM | 180 nM | O=C(NC[C@@H](O)[C@@H]1Cc2ccccc2CN1)c1ccc(C(=O)N2CCOCC2)cc1 [Example 28, N-((R)-2-Hydroxy-2-((S)-1,2,3,4-tetrahydroisoquinolin-3-yl)ethyl)-4-(morpholine-4-carbonyl)benzamide hydrochloride] | –
254 nM | 105 nM | O=C(NC[C@@H](O)[C@@H]1Cc2ccccc2CN1)c1ccc(C(=O)N2CCS(=O)(=O)CC2)cc1 [Example 37, 4-(1,1-Dioxidothiomorpholine-4-carbonyl)-N-((R)-2-hydroxy-2-((S)-1,2,3,4-tetrahydroisoquinolin-3-yl)ethyl)benzamide] | –
15 nM | 61 nM | CC(=O)N1CCC(Nc2cc(C(=O)NC[C@@H](O)[C@@H]3Cc4ccccc4CN3)ncn2)CC1 [Example 51, 6-((1-Acetylpiperidin-4-yl)amino)-N—((R)-2-hydroxy-2-((S)-1,2,3,4-tetrahydroisoquinolin-3-yl)ethyl)pyrimidine-4-carboxamide dichloride] | –
3 nM | 161 nM | CCOc1c(C(=O)NC[C@@H](O)[C@@H]2Cc3ccccc3CN2)ccc(C(=O)N2CCOCC2)c1C [Example 80, 2-Ethoxy-N-((R)-2-hydroxy-2-((S)-1,2,3,4-tetrahydroisoquinolin-3-yl)ethyl)-3-methyl-4-(morpholine-4-carbonyl)benzamide hydrochloride] | –
81 nM | 124 nM | O=C(NC[C@@H](O)[C@@H]1Cc2ccccc2CN1)c1ccc2nc(C(F)(F)F)[nH]c2c1 [Example 84, N-((R)-2-Hydroxy-2-((S)-1,2,3,4-tetrahydroisoquinolin-3-yl)ethyl)-2-(trifluoromethyl)-1H-benzo[d]imidazole-6-carboxamide dihydrochloride] | –
– | 66 nM | COC(=O)N1CCC(Oc2ccc(C(=O)NC[C@@H](O)[C@@H]3Cc4ccccc4CN3)cn2)CC1 [Example 100, Methyl 4-((5-(((R)-2-hydroxy-2-((S)-1,2,3,4-tetrahydroisoquinolin-3-yl)ethyl)carbamoyl)pyridin-2-yl)oxy)piperidine-1-carboxylate] | 11 nM
– | 104 nM | O=C(NC[C@@H](O)[C@@H]1Cc2ccccc2CN1)c1ccc(N2CCOCC2)nc1 [Example 101, N—((R)-2-Hydroxy-2-((S)-1,2,3,4-tetrahydroisoquinolin-3-yl)ethyl)-6-morpholinonicotinamide] | 10 nM
